Measured values as given in patent US20250084056A1, “SUBSTITUTED OXOISOINDOLINYL PIPERIDINE-2,6-DIONE COMPOUNDS” (BRISTOL-MYERS SQUIBB COMPANY, priority 2023, published 2025).

Legend:
Assay type in all cases: cell-based
[1] = system: Phospho-Rb (Ser807/811); test: Phospho-Retinoblastoma (pRB) Cellular Assay; conditions: Homo sapiens, OVCAR-3, NIH OVCAR3 cells, 24 hours; for IC50: concentration giving 50% response; for Emax: maximum response, reference compound at 10 μM = 100%, read-out: pRB Ymax
Description: Phospho-Retinoblastoma (pRB) Cellular Assay
NIH OVCAR3 (HTB-161, American Type Culture Collection, Manassas VA) cells were grown up to passage 10 in culture media made up of RPMI (11835-030 Gibco, Grand Island NY), 20% HI FBS (16140-071, Gibco, Grand Island NY), and 0.01 mg/mL insulin from bovine pancreas (I6634-1G, Sigma Aldrich, St. Louis, MO).
The cells were seeded in a 384-well CulturPlate (6007688, Perkin Elmer, Waltham MA) at a density of 10,000 cells/well in 20 μL of the above culture media and incubated overnight at 37° C. and 5% CO2.
The next day, cells were treated using an Echo 650 (Beckman Coulter, Indianapolis IN) acoustic dispenser with 40 nL of compounds dissolved in DMSO at the appropriate serial dilutions (10 mM to […]). Cells were then incubated for 24 hours as above.
After 24 hours elapsed, media was removed from each well and shortly after 20 μL of the following mix was added: 12 μL deionized water, 4 μL lysis buffer, 4 μL of reconstituted antibody mix, and 1:100 phosphatase inhibitor. These components belong to the Phospho-Rb (Ser807/811) Cellular Kit (64RBS807PEY, Perkin Elmer, Waltham MA).
Plates were sealed and incubated away from light at room temperature for at least 4 hours before reading them on an EnVision plate reader (Perkin Elmer, Waltham MA) according to the kit manufacturer's protocol. The reference compound, N-(5-{[(5-tert-butyl-1,3-oxazol-2-yl)methyl]sulfanyl}-1,3-thiazol-2-yl)piperidine-4-carboxamide, at 10 μM was used to define 100% response. Assay results for each compound were reported as IC50, the concentration giving 50% response, and Ymax, the maximum response observed with the compound.

[2] = target: Cyclin E1 (Homo sapiens, UniProt P24864+Q96SW2); test: Cyclin E1 Cellular Degradation Assay (MSD); design: endogenous in cells; host or cells: OVCAR3; conditions: for DC50 / Dmax: Cyclin E1 cellular degradation; for Dmax: maximum degradation; for Ratio of GSPT1 DC50/Cyclin E1 DC50: selectivity for degradation of Cyclin E1 over GSPT1
Sequence of Cyclin E1 (P24864 whole entry): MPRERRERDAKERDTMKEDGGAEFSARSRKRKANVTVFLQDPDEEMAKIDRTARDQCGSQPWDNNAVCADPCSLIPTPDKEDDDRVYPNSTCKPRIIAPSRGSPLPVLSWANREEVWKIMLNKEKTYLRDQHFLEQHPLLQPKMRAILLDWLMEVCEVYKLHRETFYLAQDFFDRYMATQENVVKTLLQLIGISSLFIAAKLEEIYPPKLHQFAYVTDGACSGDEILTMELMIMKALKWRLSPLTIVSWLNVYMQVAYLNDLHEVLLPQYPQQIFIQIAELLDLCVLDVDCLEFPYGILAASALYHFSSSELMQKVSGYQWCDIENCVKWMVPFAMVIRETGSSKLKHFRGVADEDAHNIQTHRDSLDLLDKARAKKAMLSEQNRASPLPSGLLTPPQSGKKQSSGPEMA
Sequence of Cyclin E1 (Q96SW2 whole entry): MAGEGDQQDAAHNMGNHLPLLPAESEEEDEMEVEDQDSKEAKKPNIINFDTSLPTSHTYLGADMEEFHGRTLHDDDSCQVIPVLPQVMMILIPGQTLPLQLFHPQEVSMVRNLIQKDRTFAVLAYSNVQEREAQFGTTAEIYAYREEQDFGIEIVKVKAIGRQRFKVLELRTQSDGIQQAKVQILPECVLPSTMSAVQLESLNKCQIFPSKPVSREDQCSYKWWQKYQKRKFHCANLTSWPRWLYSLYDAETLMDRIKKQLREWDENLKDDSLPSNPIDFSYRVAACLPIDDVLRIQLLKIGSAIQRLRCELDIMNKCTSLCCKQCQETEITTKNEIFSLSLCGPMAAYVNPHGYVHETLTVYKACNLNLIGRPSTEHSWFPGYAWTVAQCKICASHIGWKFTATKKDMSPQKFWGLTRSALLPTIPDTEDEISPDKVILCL
Sequence of Cyclin E1 (Q16531 whole entry partner): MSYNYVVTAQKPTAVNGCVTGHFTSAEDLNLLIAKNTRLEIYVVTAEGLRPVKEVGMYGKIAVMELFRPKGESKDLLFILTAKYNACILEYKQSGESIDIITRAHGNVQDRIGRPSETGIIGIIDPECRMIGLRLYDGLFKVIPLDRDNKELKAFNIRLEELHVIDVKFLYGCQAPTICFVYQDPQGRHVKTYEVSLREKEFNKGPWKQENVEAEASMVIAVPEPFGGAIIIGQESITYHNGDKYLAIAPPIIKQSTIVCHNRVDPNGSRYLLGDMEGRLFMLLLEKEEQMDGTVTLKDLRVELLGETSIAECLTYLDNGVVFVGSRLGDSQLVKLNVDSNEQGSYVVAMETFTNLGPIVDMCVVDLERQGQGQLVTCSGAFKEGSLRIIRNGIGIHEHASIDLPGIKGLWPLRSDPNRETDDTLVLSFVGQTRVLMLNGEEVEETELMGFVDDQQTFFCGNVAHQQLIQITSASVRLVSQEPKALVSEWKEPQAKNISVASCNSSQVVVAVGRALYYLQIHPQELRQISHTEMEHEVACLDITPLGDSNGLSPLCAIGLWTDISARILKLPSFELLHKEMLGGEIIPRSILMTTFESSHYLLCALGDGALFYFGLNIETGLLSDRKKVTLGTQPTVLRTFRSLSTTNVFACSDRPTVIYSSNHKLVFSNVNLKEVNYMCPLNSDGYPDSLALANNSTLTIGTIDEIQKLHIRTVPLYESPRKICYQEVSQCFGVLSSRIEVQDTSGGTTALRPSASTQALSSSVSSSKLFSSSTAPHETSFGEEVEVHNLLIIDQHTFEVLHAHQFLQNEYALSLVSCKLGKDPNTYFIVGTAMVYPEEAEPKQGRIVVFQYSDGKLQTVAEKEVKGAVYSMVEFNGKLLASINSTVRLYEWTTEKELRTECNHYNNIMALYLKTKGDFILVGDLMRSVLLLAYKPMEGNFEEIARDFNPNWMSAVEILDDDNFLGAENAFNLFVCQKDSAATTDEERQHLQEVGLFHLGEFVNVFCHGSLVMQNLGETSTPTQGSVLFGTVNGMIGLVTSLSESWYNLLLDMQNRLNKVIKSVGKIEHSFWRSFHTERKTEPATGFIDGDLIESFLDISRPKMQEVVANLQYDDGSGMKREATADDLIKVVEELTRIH
Description: Culturing cells: On Day 0, OVCAR3 cells were plated at 15,000 cells/well in 40 μL of culture medium (RPMI1640, 20% FBS, 0.01 insulin, 1% Anti/Anti) in a 384 well cell culture plate. Cell cultures were incubated for 24 hours at 37° C. and 5% CO2.
Coating MSD plates: On Day 1, rabbit anti-CCNE1 antibody (Abcam ab33911, 1 μg/mL in DPBS, […]) was dispensed to a Meso Scale Discovery plate (MSD L21XA). The MSD plate was spun briefly to ensure the solution coated the bottom of the well and incubated overnight at 4° C. On Day 2, the plate was washed 3 times with TBS +0.2% TWEEN, blocked for 1 hour with 3% MSD Blocker A (MSD R93AA-1, 30 μL/well), then washed again 3 times with TBS+0.2% TWEEN.
Treating and lysing cells: On Day 1, compounds of interest were dispensed into the cell cultures by acoustic dispensing technology. The cell cultures were then spun at 400 g for 4 minutes to disperse the compounds and incubated at 37° C. and 5% CO2 for 24 hours. After incubation, 40 μL of DPBS was added to the cell cultures to dilute the media. All liquid was gently discarded and immediately replaced with 30 μL of lysis buffer (MSD Tris Lysis buffer (MSD R60TX-2), Halt Protease inhibitor (ThermoFisher 78438), Phosphatase Inhibitor II (Sigma-Aldrich P5726), Phosphatase Inhibitor III (Sigma-Aldrich P0044), 0.02M PMSF (Sigma-Aldrich 7626), 0.1% SDS (VWR E719-100ML)). The plate was then sealed, shaken at 300 rpm at room temperature for 5 minutes, and freeze-thawed for optimum cell lysis.
Collecting data: After thawing, 25 μL of lysate was transferred to a coated MSD plate. The plate was then sealed and shaken at 300 rpm overnight in 4° C. On Day 3, the MSD plate was washed 3 times with TBS+0.2% TWEEN. Mouse anti-CCNE1 antibody (Abcam ab238081, 0.5 μg/mL in 1% MSD Blocker A, 10 μL/well) dispensed to the MSD plate, which was then sealed and shaken at room temperature for 3 hours. After the first antibody incubation, the plate was washed 3 times with TBS+0.2% TWEEN, then goat anti-mouse Sulfo-Tag antibody (MSD R32AC, 1 μg/mL in 1% MSD Blocker A, 10 μL/well) was dispensed to the MSD plate. The plate was sealed again and shaken at room temperature for 1 hour, then washed 3 times with TBS+0.2% TWEEN. After the final wash, 35 μL of 1× Read Buffer (MSD R92TC-1) was added to each well and the data was captured using the MSD plate reader. The reference compound, [2-(2,6-dioxopiperidin-3-yl)-4-methoxy-3-oxo-2,3-dihydro-1H-isoindol-5-yl]methyl N-[4-(3,4-difluorophenoxy)phenyl]carbamate, at […] was used to define […]. Assay results for each compound were reported as DC50, the concentration giving 50% response, and Dmax, the maximum response observed with the compound.

[3] = target: GSPT1 (Homo sapiens, UniProt P15170+Q96SW2); test: GSPT1 Cellular Degradation Assay (DF15-GSPT1-ePL); design: expressed in transfected cells; conditions: DF15-GSPT1-ePL cells, 20 hours
Sequence of GSPT1 (P15170 whole entry, the tested form may be a part): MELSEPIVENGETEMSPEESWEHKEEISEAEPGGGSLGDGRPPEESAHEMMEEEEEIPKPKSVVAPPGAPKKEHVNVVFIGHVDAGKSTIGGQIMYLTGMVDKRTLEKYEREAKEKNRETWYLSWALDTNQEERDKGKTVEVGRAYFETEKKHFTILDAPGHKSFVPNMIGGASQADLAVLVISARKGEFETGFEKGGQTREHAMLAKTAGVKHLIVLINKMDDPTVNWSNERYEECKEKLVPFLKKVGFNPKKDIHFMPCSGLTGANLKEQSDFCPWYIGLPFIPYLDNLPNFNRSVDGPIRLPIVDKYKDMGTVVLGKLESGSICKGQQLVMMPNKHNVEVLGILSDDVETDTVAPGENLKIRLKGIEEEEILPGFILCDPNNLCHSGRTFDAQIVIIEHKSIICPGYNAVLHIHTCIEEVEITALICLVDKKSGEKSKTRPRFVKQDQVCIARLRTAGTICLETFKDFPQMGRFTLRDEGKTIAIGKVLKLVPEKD
Sequence of GSPT1 (Q96SW2 whole entry, the tested form may be a part): as the sequence (Q96SW2 whole entry) above
Sequence of GSPT1 (Q16531 whole entry partner, the tested form may be a part): as the sequence (Q16531 whole entry partner) above
Source text: DF15-GSPT1-ePL was used for intracellular GSPT1 protein degradation detection in form of chemiluminescent signal, which was built on a human DF15 cell line (CVCL_Y429) with conditional co-expression of chimeric GSPT1 (target) and ePL/donor (enhanced ProLabel® by DiscoverX for enzyme fragment complementation with donor-acceptor pairing). The cells used the culture medium in two arrangements for assay and maintenance. During assay, it used Core-RPMI 1640 medium with 10% Fetal Bovine Serum (Heat Inactivated) and 1× Penicillin/Streptomycin; and during passage maintenance, used added ingredients: 0.1 mM NEAA, 1 mM sodium pyruvate, 25 mM Hepes, 0.1% Pluronic F-68, 1× Glutamin, 4 μg/mL Blasticidin (selection agent). Detection was performed on a 1536 well tissue culture plate (Corning #3727) with cells seeded in 3.5 μL core-RPMI 1640 at density of 0.25 million/mL after the pre-titrated test compounds in DMSO on ECHO plate were dispensed onto the assay plate by use of ECHO (liquid handing system via acoustic energy from Labcyte). Assay incubation lasted 20 hours in 37° C. incubator with 5% CO2; then followed by 30 minutes of plate-cooling at room temperature; then detection-reagent-mix was added in 3.5 μL/well with pre-defined proportion of enzyme acceptor, substrate, and lysis buffer. Plate signal reading for luminescence on an EnVision plate reader (PerkinElmer) was conducted after 60 minutes of former step at room temperature. Raw data was collected and processed with Dotmatics (data analyzer) for test compound's potency values. The reference compound, 3-[5-(3,6-dimethoxyisoquinolin-1-yl)-1-oxo-2,3-dihydro-1H-isoindol-2-yl]piperidine-2,6-dione, at […] was used to define 75% response. Assay results for each compound were reported as DC50, the concentration giving 50% response, and Dmax, the maximum response observed with the compound.

| SMILES | IC50 [1] [nM] | Emax [1] [%] | DC50 [2] [nM] | Dmax [2] [%] | Ratio of GSPT1 DC50/Cyclin E1 DC50 [2] | DC50 [3] [nM] | Dmax [3] [%] |
| --- | --- | --- | --- | --- | --- | --- | --- |
| COc1c(COC(=O)Nc2ccc(Cc3cccc(F)c3)cc2)ccc2c1C(=O)N(C1CCC(=O)NC1=O)C2 (stereo not shown) [Example 6, [2-(2,6-dioxopiperidin-3-yl)-4-methoxy-3-oxo-2,3-dihydro-1H-isoindol-5-yl]methyl N-{4-[(3-fluorophenyl)methyl]phenyl}carbamate] | 149 | 117 | 62 | 94 | >226 | > 14000 | 6 |
| COc1c(COC(=O)Nc2ccc(C3(c4ccccc4)CC3)cc2)ccc2c1C(=O)N(C1CCC(=O)NC1=O)C2 (stereo not shown) [Example 7, [2-(2,6-dioxopiperidin-3-yl)-4-methoxy-3-oxo-2,3-dihydro-1H-isoindol-5-yl]methyl N-[4-(1-phenylcyclopropyl)phenyl]carbamate] | 1780 | 10 | 203 | 90 | >69 | > 14000 | 21 |
| COc1c(COC(=O)Nc2ccc(N(C)c3cccc(F)c3)cc2)ccc2c1C(=O)N(C1CCC(=O)NC1=O)C2 (stereo not shown) [Example 8, [2-(2,6-dioxopiperidin-3-yl)-4-methoxy-3-oxo-2,3-dihydro-1H-isoindol-5-yl]methyl N-{4-[(3-fluorophenyl)(methyl)amino]phenyl}carbamate] | 1230 | 99 | 353 | 104 | >40 | > 14000 | 15 |
| COc1c(COC(=O)Nc2ccc(Nc3cccc(F)c3)cc2)ccc2c1C(=O)N(C1CCC(=O)NC1=O)C2 (stereo not shown) [Example 9, [2-(2,6-dioxopiperidin-3-yl)-4-methoxy-3-oxo-2,3-dihydro-1H-isoindol-5-yl]methyl N-{4-[(3-fluorophenyl)amino]phenyl}carbamate] | 3010 | 85 | 648 | 86 | >22 | > 14000 | 38 |
| COc1c(COC(=O)Nc2ccc(Oc3cccc(Br)c3)cc2)ccc2c1C(=O)N(C1CCC(=O)NC1=O)C2 (stereo not shown) [Example 10, [2-(2,6-dioxopiperidin-3-yl)-4-methoxy-3-oxo-2,3-dihydro-1H-isoindol-5-yl]methyl N-[4-(3-bromophenoxy)phenyl]carbamate] | 352 | 105 | 114 | 106 | >123 | > 14000 | 54 |
| COc1c(COC(=O)Nc2ccc(Oc3cccc(C)c3)cc2)ccc2c1C(=O)N(C1CCC(=O)NC1=O)C2 (stereo not shown) [Example 11, [2-(2,6-dioxopiperidin-3-yl)-4-methoxy-3-oxo-2,3-dihydro-1H-isoindol-5-yl]methyl N-[4-(3-methylphenoxy)phenyl]carbamate] | 356 | 98 | 61 | 112 | >228 | > 14000 | 33 |
| COc1c(COC(=O)Nc2ccc(Oc3cc(C)cc(C)c3)cc2)ccc2c1C(=O)N(C1CCC(=O)NC1=O)C2 (stereo not shown) [Example 12, [2-(2,6-dioxopiperidin-3-yl)-4-methoxy-3-oxo-2,3-dihydro-1H-isoindol-5-yl]methyl N-[4-(3,5-dimethylphenoxy)phenyl]carbamate] | 483 | 111 | 82 | 100 | >171 | > 14000 | 11 |
| COc1c(COC(=O)Nc2ccc(Oc3cc(F)cc(F)c3)cc2)ccc2c1C(=O)N(C1CCC(=O)NC1=O)C2 (stereo not shown) [Example 13, [2-(2,6-dioxopiperidin-3-yl)-4-methoxy-3-oxo-2,3-dihydro-1H-isoindol-5-yl]methyl N-[4-(3,5-difluorophenoxy)phenyl]carbamate] | 278 | 97 | 55 | 113 | >254 | > 14000 | 7 |
| COc1c(COC(=O)Nc2ccc(Oc3ccc(F)c(Cl)c3)cc2)ccc2c1C(=O)N(C1CCC(=O)NC1=O)C2 (stereo not shown) [Example 14, [2-(2,6-dioxopiperidin-3-yl)-4-methoxy-3-oxo-2,3-dihydro-1H-isoindol-5-yl]methyl N-[4-(3-chloro-4-fluorophenoxy)phenyl]carbamate] | 363 | 96 | 59 | 108 | >239 | > 14000 | 43 |
| COc1c(COC(=O)Nc2ccc(Oc3cc(F)c(F)c(F)c3)cc2F)ccc2c1C(=O)N(C1CCC(=O)NC1=O)C2 (stereo not shown) [Example 15, [2-(2,6-dioxopiperidin-3-yl)-4-methoxy-3-oxo-2,3-dihydro-1H-isoindol-5-yl]methyl N-[2-fluoro-4-(3,4,5-trifluorophenoxy)phenyl]carbamate] | 127 | 109 | 35 | 109 | >395 | > 14000 | 48 |
